pEC50: −log10 of the molar value. Where two headings read alike, the source gives them in different places. Starred links: 1 amine or outer side, 2 acyl side, 3 side chain; linkers in the order of their positions; H or OH if unused. Non-standard residues stand in square brackets, D forms with d. Residues, ends and D or L forms follow the SMILES beside them. Groups on a side chain read outwards from the residue. *: point of attachment. Dip = N[C@H](C(=O)O)C(c1ccccc1)c1ccccc1; γGlu = O=C(O)[C@H](CCC(=O)[*:2])N[*:1]; Stearoyl = CCCCCCCCCCCCCCCCCC(=O)*; Palmitoyl = CCCCCCCCCCCCCCCC(=O)*; αMeF = C[C@](N)(Cc1ccccc1)C(=O)O; PEG4 = NCCOCCOCCOCCOCCC(=O)O; Nle = CCCC[C@H](N)C(=O)O; PEG2 = NCCOCCOCCC(=O)O; Aib = CC(C)(N)C(=O)O

A short description of test [1]: Mouse acute food intake study. The following applies: male C57Bl/6 mice, s.c., dose 10 nmol/kg, cumulative food intake at 24 hr vs vehicle. The format is in vivo. On the procedure:
Male C57Bl/6 mice obtained from Jackson Laboratories or Charles River at 8-9 weeks of age and were housed one per cage in BioDaq (Research Diets) cages. Mice were placed on Alpha Dri bedding, standard chow diet (Envigo, 2018) and given water pouches. Mice were allowed to acclimate for 1-2 weeks. Body weight was measured to ensure appropriate acclimation. After acclimation, mice were sham dosed a minimum of 2 times prior to initiation of food intake study. On study day, mice were placed in clean cage bottoms, weighed, and fasted for 6-8 hours. Mice were sorted into groups based on average 24-hour food intake data and body weight. 1-2 hours prior to lights out, mice were dosed subcutaneously with one vehicle or test peptide dissolved in an appropriate vehicle at 5 mL/kg. Mice were left undisturbed and allowed access to food and water for 48 hours. Automated food intake was monitored in the BioDaq system was monitored during this time. Discrete food intake data was exported into MS Excel from which cumulative food intake data was generated and analyzed.

The target in test [2] is human GLP-1 receptor (hGLP-1R) (Homo sapiens, UniProt P43220). As to the kind of experiment: cAMP production (HTRF) in CHO cells expressing hGLP-1R. The format is cell-based. Set-up: expressed in transfected cells. The following applies: for pEC50: cAMP in CHO hGLP-1R cells, geometric mean, read-out: hGLP-1R EC50; for % Relative Potency Ratio: % GLP-1R activity relative to GLP-1 / % GlucR activity relative to glucagon. In a few lines: (§1)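 Cells were resuspended in assay buffer at batch-optimized density, typically 1×10^5 cells/mL for hGLP-1R and 2×10^5 cells/mL for hGCGR. After 30 min incubation at room temperature with compound, cAMP was measured by two-step HTRF. EC50 values came from 4-parameter logistic fits of % Delta F.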
In general terms: cAMP levels reflect the balance of adenylyl cyclase and phosphodiesterase activity.

Test [3] deals with human glucagon receptor (hGCGR) (Homo sapiens, UniProt P47871). As to the kind of experiment: cAMP production (HTRF) in CHO cells expressing hGCGR. Format: cell-based. The arrangement: expressed in transfected cells. Conditions: cAMP in CHO hGCGR cells, geometric mean, read-out: hGluc-R EC50. Put shortly:
as §1

Setting [4] is: Table 6, peptides modified at position 17.
Where [5] appears, read: Table 7, peptides modified at position 20.

human GLP-1 receptor (hGLP-1R), sequence (P43220 24-463): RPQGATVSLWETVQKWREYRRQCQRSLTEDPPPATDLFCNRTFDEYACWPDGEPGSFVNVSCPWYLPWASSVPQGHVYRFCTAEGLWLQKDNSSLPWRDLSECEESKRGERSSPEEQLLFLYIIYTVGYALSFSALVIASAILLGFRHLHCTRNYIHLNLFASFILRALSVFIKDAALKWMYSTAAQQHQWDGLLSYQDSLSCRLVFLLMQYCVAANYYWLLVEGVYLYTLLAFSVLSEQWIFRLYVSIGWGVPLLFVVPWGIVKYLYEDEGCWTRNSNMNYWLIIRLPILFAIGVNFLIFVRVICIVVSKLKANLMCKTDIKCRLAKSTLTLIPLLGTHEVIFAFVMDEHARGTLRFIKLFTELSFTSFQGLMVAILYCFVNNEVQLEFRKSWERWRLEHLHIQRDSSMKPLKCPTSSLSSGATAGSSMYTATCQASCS
human glucagon receptor (hGCGR), sequence (P47871 26-477): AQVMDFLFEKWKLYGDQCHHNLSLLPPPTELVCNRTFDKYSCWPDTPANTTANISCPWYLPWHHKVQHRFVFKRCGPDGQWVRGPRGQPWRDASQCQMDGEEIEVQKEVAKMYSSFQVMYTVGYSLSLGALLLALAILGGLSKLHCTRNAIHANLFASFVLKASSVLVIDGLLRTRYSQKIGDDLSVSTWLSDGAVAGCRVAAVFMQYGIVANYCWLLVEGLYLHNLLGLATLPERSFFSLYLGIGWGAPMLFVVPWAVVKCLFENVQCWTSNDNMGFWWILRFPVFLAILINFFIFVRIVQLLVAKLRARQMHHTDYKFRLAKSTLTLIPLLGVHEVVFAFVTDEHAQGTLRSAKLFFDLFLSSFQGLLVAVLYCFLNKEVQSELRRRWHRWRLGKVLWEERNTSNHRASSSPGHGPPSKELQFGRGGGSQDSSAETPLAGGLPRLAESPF

The pEC50 is −log10 of the EC50, conventionally taken in molar units. `CCCCCCCCCCCCCCCCCC(=O)N[C@@H](CCC(=O)N[C@@H](CCC(=O)NCCOCCOCCC(=O)NCCOCCOCCC(=O)NCCCC[C@H](NC(=O)[C@H](CO)NC(=O)[C@H](CC(=O)O)NC(=O)[C@H](CC(C)C)NC(=O)[C@@H](NC(=O)[C@H](CCCCN)NC(=O)[C@H](CO)NC(=O)[C@@H](NC(=O)[C@H](CC(=O)O)NC(=O)[C@H](CO)NC(=O)[C@@H](NC(=O)[C@](C)(Cc1ccccc1)NC(=O)[C@H](CO)NC(=O)CNC(=O)[C@H](CCC(N)=O)NC(=O)C(C)(C)NC(=O)[C@@H](N)Cc1c[nH]cn1)[C@@H](C)O)C(C)C)C(c1ccccc1)c1ccccc1)C(=O)N[C@@H](C)C(=O)N[C@@H](C)C(=O)N[C@@H](CCC(N)=O)C(=O)N[C@@H](CC(=O)O)C(=O)N[C@@](C)(Cc1ccccc1)C(=O)N[C@H](C(=O)N[C@@H](CCC(=O)O)C(=O)NC(C)(C)C(=O)N[C@@H](CC(C)C)C(=O)N[C@@H](C)C(=O)N[C@@H](CC(N)=O)C(=O)N[C@H](C(N)=O)[C@@H](C)O)C(C)C)C(=O)O)C(=O)O` [Peptide 45] (H-H[Aib]QGS[αMeF]TSDVSK[Dip]LDSK([PEG2-PEG2-γGlu-γGlu-Stearoyl])AAQD[αMeF]VE[Aib]LANT-NH2; N-terminus assumed): the “24 hr % Vehicle Food Intake” value in test [1] stood at 76.2%. Also, the pEC50 is 11.69 in test [2] (setting [4]) and 10.83 in test [3] (setting [4]). The “% Relative Potency Ratio” value in test [2] (Table 6) amounted to 14.6.
The matching figures for `CCCCCCCCCCCCCCCCCC(=O)N[C@@H](CCC(=O)N[C@@H](CCC(=O)NCCOCCOCCC(=O)NCCOCCOCCC(=O)NCCCC[C@H](NC(=O)[C@H](CO)NC(=O)[C@H](CC(=O)O)NC(=O)[C@H](CC(C)C)NC(=O)[C@@H](NC(=O)[C@H](CCCCN)NC(=O)[C@H](CO)NC(=O)[C@@H](NC(=O)[C@H](CC(=O)O)NC(=O)[C@H](CO)NC(=O)[C@@H](NC(=O)[C@](C)(Cc1ccccc1)NC(=O)[C@H](CO)NC(=O)CNC(=O)[C@H](CCC(N)=O)NC(=O)[C@H](CO)NC(=O)[C@@H](N)Cc1c[nH]cn1)[C@@H](C)O)C(C)C)C(c1ccccc1)c1ccccc1)C(=O)N[C@@H](C)C(=O)N[C@@H](C)C(=O)N[C@@H](CCC(N)=O)C(=O)N[C@@H](CC(=O)O)C(=O)N[C@@](C)(Cc1ccccc1)C(=O)N[C@H](C(=O)N[C@@H](CCC(=O)O)C(=O)NC(C)(C)C(=O)N[C@@H](CC(C)C)C(=O)N[C@@H](CCC(=O)O)C(=O)N[C@@H](C)C(=O)NCC(=O)NCC(N)=O)C(C)C)C(=O)O)C(=O)O` [Peptide 46] (H-HSQGS[αMeF]TSDVSK[Dip]LDSK([PEG2-PEG2-γGlu-γGlu-Stearoyl])AAQD[αMeF]VE[Aib]LEAGG-NH2; N-terminus assumed): 72.1%, 11.47, 11.23 and 3.4.
`CCCCCCCCCCCCCCCC(=O)N[C@@H](CCC(=O)NCCOCCOCCOCCOCCC(=O)NCCCC[C@H](NC(=O)[C@@H](NC(=O)[C@H](CC(=O)O)NC(=O)[C@H](CC(C)C)NC(=O)[C@](C)(Cc1ccccc1)NC(=O)[C@H](CCCCN)NC(=O)[C@H](CO)NC(=O)[C@@H](NC(=O)[C@H](CC(=O)O)NC(=O)[C@H](CO)NC(=O)[C@@H](NC(=O)[C@H](Cc1ccccc1)NC(=O)[C@@H](NC(=O)CNC(=O)[C@H](CCC(N)=O)NC(=O)C(C)(C)NC(=O)[C@@H](N)Cc1c[nH]cn1)[C@@H](C)O)[C@@H](C)O)C(C)C)C(C)C)C(=O)N[C@@H](CCCNC(=N)N)C(=O)N[C@@H](C)C(=O)N[C@@H](CCC(N)=O)C(=O)N[C@@H](CC(=O)O)C(=O)N[C@@](C)(Cc1ccccc1)C(=O)N[C@H](C(=O)N[C@@H](CCC(=O)O)C(=O)NC(C)(C)C(=O)N[C@@H](CC(C)C)C(=O)N[C@@H](CCCC)C(=O)N[C@@H](CCC(=O)O)C(=O)N[C@H](C(N)=O)[C@@H](C)O)C(C)C)C(=O)O` [Peptide 68] (H-H[Aib]QGTFTSDVSK[αMeF]LDVK([PEG4-γGlu-Palmitoyl])RAQD[αMeF]VE[Aib]L[Nle]ET-NH2; N-terminus assumed): in test [1], the “24 hr % Vehicle Food Intake” value was 74.2%. The negative logarithm of the EC50 (pEC50) in test [2] (setting [4]) was 11.96; in test [3] (setting [4]) it was 11.33. The “% Relative Potency Ratio” value in test [2] (Table 6) is listed as 8.4.
The like results for `CCCCCCCCCCCCCCCCCC(=O)N[C@@H](CCC(=O)N[C@@H](CCC(=O)NCCOCCOCCOCCOCCC(=O)NCCCC[C@H](NC(=O)[C@H](CO)NC(=O)[C@H](CC(=O)O)NC(=O)[C@H](CC(C)C)NC(=O)[C@](C)(Cc1ccccc1)NC(=O)[C@H](CCCCN)NC(=O)[C@H](CO)NC(=O)[C@@H](NC(=O)[C@H](CC(=O)O)NC(=O)[C@H](CO)NC(=O)[C@@H](NC(=O)[C@](C)(Cc1ccccc1)NC(=O)[C@H](CO)NC(=O)CNC(=O)[C@H](CCC(N)=O)NC(=O)C(C)(C)NC(=O)[C@@H](N)Cc1c[nH]cn1)[C@@H](C)O)C(C)C)C(=O)N[C@@H](C)C(=O)N[C@@H](C)C(=O)N[C@@H](CCC(N)=O)C(=O)N[C@@H](CC(=O)O)C(=O)N[C@@](C)(Cc1ccccc1)C(=O)N[C@H](C(=O)N[C@@H](CCC(=O)O)C(=O)NC(C)(C)C(=O)N[C@@H](CC(C)C)C(=O)N[C@@H](CCC(=O)O)C(=O)N[C@@H](C)C(=O)NCC(=O)NCC(N)=O)C(C)C)C(=O)O)C(=O)O` [Peptide 71] (H-H[Aib]QGS[αMeF]TSDVSK[αMeF]LDSK([PEG4-γGlu-γGlu-Stearoyl])AAQD[αMeF]VE[Aib]LEAGG-NH2) were, in that order, 80.6%, 11.66, 10.27 and 48.9.
`CCCCCCCCCCCCCCCC(=O)N[C@@H](CCC(=O)N[C@@H](CCC(=O)NCCOCCOCCC(=O)NCCOCCOCCC(=O)NCCCC[C@H](NC(=O)[C@H](CO)NC(=O)[C@H](CC(=O)O)NC(=O)[C@H](CC(C)C)NC(=O)[C@](C)(Cc1ccccc1)NC(=O)[C@H](CCCCN)NC(=O)[C@H](CO)NC(=O)[C@@H](NC(=O)[C@H](CC(=O)O)NC(=O)[C@H](CO)NC(=O)[C@@H](NC(=O)[C@](C)(Cc1ccccc1)NC(=O)[C@H](CO)NC(=O)CNC(=O)[C@H](CCC(N)=O)NC(=O)C(C)(C)NC(=O)[C@@H](N)Cc1c[nH]cn1)[C@@H](C)O)C(C)C)C(=O)N[C@@H](C)C(=O)N[C@@H](C)C(=O)N[C@@H](CCC(N)=O)C(=O)N[C@@H](CC(=O)O)C(=O)N[C@@](C)(Cc1ccccc1)C(=O)N[C@H](C(=O)N[C@@H](CCC(N)=O)C(=O)NC(C)(C)C(=O)N[C@H](C(=O)N[C@@H](C)C(=O)N[C@@H](CC(N)=O)C(N)=O)[C@@H](C)CC)C(C)C)C(=O)O)C(=O)O` [Peptide 73] (H-H[Aib]QGS[αMeF]TSDVSK[αMeF]LDSK([PEG2-PEG2-γGlu-γGlu-Palmitoyl])AAQD[αMeF]VQ[Aib]IAN-NH2; N-terminus assumed): the “24 hr % Vehicle Food Intake” value in test [1] is 63.4%. In addition, in test [2] (Table 6), the “% Relative Potency Ratio” value is reported as 157.9. Besides, in test [3] (setting [4]), the pEC50 is 10.66.
Consider `CC(C)C[C@H](NC(=O)[C@H](Cc1c[nH]c2ccccc12)NC(=O)[C@H](CCC(N)=O)NC(=O)[C@@H](NC(=O)[C@H](Cc1ccccc1)NC(=O)[C@H](CC(=O)O)NC(=O)[C@H](CCCCNC(=O)COCCOCCNC(=O)COCCOCCNC(=O)CC[C@H](NC(=O)CCCCCCCCCCCCCCCCC(=O)O)C(=O)O)NC(=O)[C@H](C)NC(=O)[C@H](CCCNC(=N)N)NC(=O)[C@H](CCC(=O)O)NC(=O)[C@H](CO)NC(=O)[C@H](CC(=O)O)NC(=O)[C@H](CC(C)C)NC(=O)[C@](C)(Cc1ccccc1)NC(=O)[C@H](CCCCN)NC(=O)[C@H](CO)NC(=O)[C@@H](NC(=O)[C@H](CC(=O)O)NC(=O)[C@H](CO)NC(=O)[C@@H](NC(=O)[C@H](Cc1ccccc1)NC(=O)[C@@H](NC(=O)CNC(=O)[C@H](CCC(N)=O)NC(=O)C(C)(C)NC(=O)[C@@H](N)Cc1c[nH]cn1)[C@@H](C)O)[C@@H](C)O)C(C)C)C(C)C)C(=O)N[C@@H](CCC(=O)O)C(=O)N[C@@H](C)C(=O)NC(C)(C)C(=O)NCC(=O)O` [Peptide 525], for which the pEC50 is 9.75 in test [2] (setting [5]) and 8.61 in test [3] (setting [5]). Also, the “% Relative Potency Ratio” value in test [2] (Table 7) was 27.4.
On to `CC(C)C[C@H](NC(=O)[C@H](Cc1c[nH]c2ccccc12)NC(=O)[C@H](C)NC(=O)[C@@H](NC(=O)[C@H](Cc1ccccc1)NC(=O)[C@H](CC(=O)O)NC(=O)[C@H](CCCCNC(=O)COCCOCCNC(=O)COCCOCCNC(=O)CC[C@H](NC(=O)CCCCCCCCCCCCCCCCC(=O)O)C(=O)O)NC(=O)[C@H](C)NC(=O)[C@H](CCCNC(=N)N)NC(=O)[C@H](CCC(=O)O)NC(=O)[C@H](CO)NC(=O)[C@H](CC(=O)O)NC(=O)[C@H](CC(C)C)NC(=O)[C@](C)(Cc1ccccc1)NC(=O)[C@H](CCCCN)NC(=O)[C@H](CO)NC(=O)[C@@H](NC(=O)[C@H](CC(=O)O)NC(=O)[C@H](CO)NC(=O)[C@@H](NC(=O)[C@H](Cc1ccccc1)NC(=O)[C@@H](NC(=O)CNC(=O)[C@H](CCC(N)=O)NC(=O)C(C)(C)NC(=O)[C@@H](N)Cc1c[nH]cn1)[C@@H](C)O)[C@@H](C)O)C(C)C)C(C)C)C(=O)N[C@@H](CCC(=O)O)C(=O)N[C@@H](C)C(=O)NC(C)(C)C(=O)NCC(=O)O` [Peptide 526], for which the pEC50 in test [2] (setting [5]) is 9.71; in test [3] (setting [5]), 9.16. Besides, the “% Relative Potency Ratio” value in test [2] (Table 7) worked out at 7.0.

The values are drawn from patent US20250353891A1 (MEDIMMUNE LIMITED, priority 2022, published 2025).
